By IC50 is commonly meant the concentration at which inhibition is half-maximal.

The values that follow come from publication PMC12073238, “The α-Glucosidase Inhibition Activities of Phaeochromycins D and E Isolated from Marine Streptomyces sp. FJ0218” (Molecules, 2025).

Like-named read-outs stand apart in the source and are kept apart here.

In assay [1] the target is T1, α-glucosidase (Saccharomyces cerevisiae, UniProt P53341). The conditions noted are these: cited from earlier work.
The target of assay [2] is T1, α-glucosidase. Nature of the assay: inhibition kinetics of α-glucosidase, Lineweaver–Burk double-reciprocal plots. Format: biochemical. The conditions noted are these: compound 1 at 0.5 and 0.7 mM, compound 2 at 0.2 and 0.3 mM; for inhibition type: ρNPG 0.25-4.0 mM. How it is done:
Louis, MO, USA) in the same PBS buffer. […] After being thoroughly mixed, the mixture was placed in a 37 °C constant temperature incubator for 15 min. […] Then, 80 μL of 200 mM Na2CO3 solution was added to complete the reaction. Finally, the absorbance value (OD) was measured at 405 nm using a microplate reader. The experiment used 20 μL of PBS as the background control instead of 20 μL of α-glucosidase solution. Additionally, 20 μL of PBS was used as the negative control instead of the test sample. […] Each treatment was repeated three times. The α-glucosidase inhibitory activity was calculated using the following formula: Inhibitory rate (%) = [(An - As)/An] × 100, where As represents the absorbance of the sample reaction solution, and An represents the absorbance of the negative control. The IC50 values, the inhibitor concentration in mM that inhibits 50% of the enzyme activity, were determined graphically by interpolating from the inhibitions determined with different concentrations of compounds, through statistical analysis using SPSS 18.0. […] For compound 1, concentrations of 0.5 mM and 0.7 mM were used, while for compound 2, concentrations of 0.2 mM and 0.3 mM were selected. […] The enzyme reaction was performed using the conditions described above. Inhibition types were analyzed using double-reciprocal plots generated with Origin 2021.

For assay [3], the target named is MAPKAP kinase-2. Set-up: method as in PMID 16124774. The note with it: weak inhibitors; cited from earlier work.
Assay [4] has as its system HeLa cell line. Set-up: method as in PMID 19190740. The conditions noted are these: at a concentration of 10 μg/mL; cited from earlier work.
In assay [5] the test system is small intestinal α-glucosidase. Set-up: method as in PMID 26840363. The conditions noted are these: small intestinal α-glucosidase in rats; cited from earlier work.

T1 sequence (P53341 whole entry): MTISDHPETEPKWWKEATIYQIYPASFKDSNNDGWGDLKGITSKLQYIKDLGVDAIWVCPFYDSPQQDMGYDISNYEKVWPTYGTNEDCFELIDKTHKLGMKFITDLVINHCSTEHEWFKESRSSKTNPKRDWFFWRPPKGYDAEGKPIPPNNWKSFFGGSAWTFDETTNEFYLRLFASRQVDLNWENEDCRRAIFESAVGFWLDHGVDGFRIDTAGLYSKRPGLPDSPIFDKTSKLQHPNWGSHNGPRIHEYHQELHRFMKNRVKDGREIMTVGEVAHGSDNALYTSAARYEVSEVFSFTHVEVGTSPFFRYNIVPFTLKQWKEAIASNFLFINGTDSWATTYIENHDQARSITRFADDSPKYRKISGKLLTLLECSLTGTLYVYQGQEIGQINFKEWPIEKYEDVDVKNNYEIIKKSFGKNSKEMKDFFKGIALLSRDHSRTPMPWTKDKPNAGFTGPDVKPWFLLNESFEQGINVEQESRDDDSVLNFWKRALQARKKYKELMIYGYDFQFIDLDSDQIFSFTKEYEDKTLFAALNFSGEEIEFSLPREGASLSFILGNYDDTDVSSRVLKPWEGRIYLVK

As for `CC(=O)CCc1ccc(O)cc1` [Raspberry ketone], the inhibition type result in assay [1] (binding reversibly and quickly) is reported as “non-competitively”.
In the case of `NS(=O)(=O)c1ccc(N/N=C/c2coc3ccccc3c2=O)cc1` [Compound 4d], the inhibition type entry in assay [1] (Lineweaver–Burk plot analysis) is on record as “non-competitive mode”.
Consider `CCCc1cc(=O)c2c(CC(=O)CC(C)O)cccc2o1` (stereo not shown) [Compound 2, phaeochromycin D], for which, in assay [2], the “effect on Km” value is “keeping the Km constant”, the “effect on Vmax” value is “decreasing the 1/Vmax” and the inhibition type result is “non-competitive inhibitor”.
For the molecule `Cc1nc2c(cc(O)c3c(=O)c4ccccc4oc32)o1` [5-hydroxy-2-methyl-6H-xantheno[4,3-d]oxazol-6-one], the inhibition type entry in assay [1] (kinetic analysis) is “competitive inhibitor”.
For `CCCc1cc(=O)c2c(CC(=O)O)cccc2o1` [Compound 1, phaeochromycin E], in assay [2], the “effect on Km” value is “Km decreases”, the “effect on Vmax” value was “decrease in Vmax” and the inhibition type entry is “uncompetitive inhibitor”.
Turning to `CCCc1cc(=O)c2c(Cc3cc(O)cc(=O)o3)cccc2o1` [Phaeochromycin C], the concentration for half-maximal inhibition (IC50) in assay [3] is 130 µM.
With Phaeochromycin A, the IC50 in assay [3] is 39 µM.
As for `O=c1c(-c2ccc(O)cc2)coc2cc(O)cc(O)c12` [genistein], the inhibition type entry in assay [1] was “non-competitive action”.
For phaeochromycin H, in assay [4], the “inhibitory rate against the HeLa cell line” value is 46.0%.
In the case of `O=c1c(-c2ccc(O)cc2)coc2cc(O)ccc12` [daidzein], the inhibition type result in assay [1] is listed as “non-competitive action”.
`O=C(OC[C@H]1O[C@@H](OC(=O)c2cc(O)c(O)c(OC(=O)c3cc(O)c(O)c(O)c3)c2)[C@H](OC(=O)c2cc(O)c(O)c(OC(=O)c3cc(O)c(O)c(O)c3)c2)[C@@H](OC(=O)c2cc(O)c(O)c(OC(=O)c3cc(O)c(O)c(O)c3)c2)[C@@H]1OC(=O)c1cc(O)c(O)c(OC(=O)c2cc(O)c(O)c(O)c2)c1)c1cc(O)c(O)c(OC(=O)c2cc(O)c(O)c(O)c2)c1` [Gallotannin]: in assay [1], the inhibition type result is listed as “parabolic mixed-type inhibition”.
Regarding `OC[C@@H]1[C@@H](O)[C@H](O)C[S@@+]1C[C@@H](O)[C@@H](O)[C@H](O)[C@@H](O)CO` [Neoponkoranol], in assay [5], the inhibition type result is “strong competitive inhibition”.
